# ChEMBL document CHEMBL1250543, “Potential application of thymidylate kinase in nucleoside analogue activation in Plasmodium falciparum” (Bioorg Med Chem, 2010)
# Tests used:
# Plasmodium falciparum [1] = experiment: Antimalarial activity against Plasmodium falciparum 3D7 at 100 uM by SYBR green assay; type: functional; details: read-out: GI
# Plasmodium falciparum [2] = experiment: Antimalarial activity against Plasmodium falciparum 3D7 after 48 hrs by SYBR green assay; type: functional, organism-based; details: 3D7, 48 h
Structure (SMILES),EC50 (Plasmodium falciparum [2]) [µM],inhibition of growth at 100 µM (Plasmodium falciparum [1]) [%]
COC(=O)[C@@H](C)NP(=O)(OC[C@H]1O[C@@H](n2cc(C)c(=O)[nH]c2=O)C[C@@H]1N=[N+]=[N-])Oc1ccccc1 (stereo partly specified),120,35
Cc1cn([C@@H]2C[C@H](N=[N+]=[N-])[C@@H](CO)O2)c(=O)[nH]c1=O,> 100,0
Cc1cn([C@H]2C[C@H](N=[N+]=[N-])[C@@H](CO)O2)c(=O)[nH]c1=O [ZIDOVUDINE],> 100,0
COC(=O)[C@@H](C)NP(=O)(OC[C@@H]1C=C[C@H](n2cc(C)c(=O)[nH]c2=O)O1)Oc1ccccc1 (stereo partly specified),> 100,9

# Further lines, with some results ahead:
EC50 (Plasmodium falciparum [2]) [µM],Structure (SMILES),inhibition of growth at 100 µM (Plasmodium falciparum [1]) [%]
67,CCOC(=O)[C@H](NP(=O)(OC[C@H]1O[C@H](n2cc(C)c(=O)[nH]c2=O)C[C@@H]1N=[N+]=[N-])Oc1ccccc1)C(C)C (stereo partly specified),78
80,CCOC(=O)[C@H](NP(=O)(OC[C@H]1O[C@@H](n2cc(C)c(=O)[nH]c2=O)C[C@@H]1N=[N+]=[N-])Oc1ccccc1)C(C)C (stereo partly specified),69
> 100,CCOC(=O)[C@H](NP(=O)(OC[C@@H]1C=C[C@H](n2cc(C)c(=O)[nH]c2=O)O1)Oc1ccccc1)C(C)C (stereo partly specified),18
66,CCOC(=O)[C@H](NP(=O)(OC[C@H]1O[C@@H](n2cnc3c(=O)[nH]c(N)nc32)C[C@@H]1N=[N+]=[N-])Oc1ccccc1)C(C)C (stereo partly specified),80
